In US8895571B2, “Isoindolinone and pyrrolopyridinone derivatives as Akt inhibitors” (Incyte Corporation, priority 2011, dated 2014):
pIC50: −log10 of the molar value.

Experiments:
Full length Akt1 = target: T1, Full length Akt1 (Homo sapiens, UniProt P31749); assay: In vitro Akt kinase enzymatic assay (HTRF), Akt1; type: biochemical; details: 0.4 nM Akt1, substrate solution with 5 mM ATP, 25° C. 1 hr
T1 construct: Full length Akt1 (cat #P2999); purchased PerkinElmer P2999
Outline: (§1)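 Full-length enzyme (0.4 nM Akt1 or 0.6 nM Akt2/Akt3 in the enzyme solution) was combined with a substrate solution of 0.1 μM ULight-Crosstide plus 5 mM ATP in pH 7.8 HEPES/MgCl2/DTT/Tween20 buffer and reacted 1 hr at 25° C. The EDTA stop contained Eu anti-phospho-Crosstide; IC50 was fitted from 11-point HTRF inhibition curves.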

Full length Akt2 = target: T2, Full length Akt2 (Homo sapiens, UniProt P31751); assay: In vitro Akt kinase enzymatic assay (HTRF), Akt2; type: biochemical; details: 0.6 nM Akt2, substrate solution with 5 mM ATP, 25° C. 1 hr
T2 construct: Full length Akt1 (cat #P2999), Akt2 (cat #PV3184); purchased PerkinElmer PV3184
Outline: as §1

Full length Akt3 = target: T3, Full length Akt3 (Homo sapiens, UniProt Q9Y243); assay: In vitro Akt kinase enzymatic assay (HTRF), Akt3; type: biochemical; details: 0.6 nM Akt3, substrate solution with 5 mM ATP, 25° C. 1 hr
T3 construct: Full length Akt1 (cat #P2999), Akt2 (cat #PV3184), Akt3 (cat #PV3185); purchased PerkinElmer PV3185
Outline: as §1

Full length PKA = target: T4, Full length PKA (Homo sapiens, UniProt P17612); assay: PKA in vitro enzymatic assay (HTRF); type: biochemical; details: 0.035 nM enzyme solution, substrate solution with 5 mM ATP, 25° C. 1 hr
T4 construct: Full length PKA (cat #P2912); purchased Invitrogen P2912
Outline: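 Reaction buffer was 50 mM HEPES pH 7.8, 10 mM MgCl2, 5 mM DTT and 0.005% Tween20. Enzyme solution was 0.035 nM, and substrate solution was 0.1 μM fluorescein-CREBtide with 5 mM ATP. After 1 h at 25°C, EDTA plus Tb anti-pS133 antibody was added, TR-FRET was read, and IC50 was fitted from 11-point, 3-fold % inhibition curves.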

[1] = tested on: LNCaP cells (human prostate tumor cell line); assay: Akt LNCaP proliferation assay (MTS); type: cell-based; details: 2% fetal bovine serum, 48 hours, class symbols
Method: LNCaP cells (human prostate tumor cell line) were plated in 96 well plates (COSTAR, Corning, N.Y.) in 50 μL at 10,000 cells/well in RPMI (Media Tech, Manassas, Va.), 2% fetal bovine serum (Hyclone/Thermo, Logan, Utah) and incubated overnight at 37° C., 5% CO2. […] of compound solution were added at final concentrations of 1000 nM to 0.5 nM in 3 fold dilutions for IC50 determination and plates further incubated for 48 hours. 100 μL of Cell Titer 96® Aqueous reagent, from an MTS colorimetric method for determining the number of viable cells in proliferation (Cell titer 96, Promega, Madison, Wis.) was added for 2 hours at 37° C., 5% CO2. Each plate was mixed well and read on a SpectroMax M5 automated plate reader (Molecular Devices, Sunnyvale Calif.). The ability of the compound to inhibit proliferation was reported as the inhibitor concentration required for 50% inhibition (IC50 values) of total cell proliferation. See Table 8 for data related to compounds of the examples.

T3 sequence (Q9Y243 whole entry): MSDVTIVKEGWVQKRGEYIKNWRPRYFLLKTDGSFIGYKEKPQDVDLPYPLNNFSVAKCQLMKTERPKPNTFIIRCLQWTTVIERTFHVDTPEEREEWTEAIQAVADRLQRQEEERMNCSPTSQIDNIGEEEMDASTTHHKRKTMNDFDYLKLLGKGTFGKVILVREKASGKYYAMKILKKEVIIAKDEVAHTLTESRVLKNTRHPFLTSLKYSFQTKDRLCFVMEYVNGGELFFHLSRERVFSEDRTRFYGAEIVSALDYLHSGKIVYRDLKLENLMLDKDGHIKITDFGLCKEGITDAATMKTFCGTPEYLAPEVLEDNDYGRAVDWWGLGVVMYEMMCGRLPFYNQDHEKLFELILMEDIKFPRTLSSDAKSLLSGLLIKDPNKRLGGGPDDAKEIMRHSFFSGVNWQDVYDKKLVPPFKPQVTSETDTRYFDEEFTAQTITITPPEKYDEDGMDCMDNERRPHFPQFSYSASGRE
T2 sequence (P31751 whole entry): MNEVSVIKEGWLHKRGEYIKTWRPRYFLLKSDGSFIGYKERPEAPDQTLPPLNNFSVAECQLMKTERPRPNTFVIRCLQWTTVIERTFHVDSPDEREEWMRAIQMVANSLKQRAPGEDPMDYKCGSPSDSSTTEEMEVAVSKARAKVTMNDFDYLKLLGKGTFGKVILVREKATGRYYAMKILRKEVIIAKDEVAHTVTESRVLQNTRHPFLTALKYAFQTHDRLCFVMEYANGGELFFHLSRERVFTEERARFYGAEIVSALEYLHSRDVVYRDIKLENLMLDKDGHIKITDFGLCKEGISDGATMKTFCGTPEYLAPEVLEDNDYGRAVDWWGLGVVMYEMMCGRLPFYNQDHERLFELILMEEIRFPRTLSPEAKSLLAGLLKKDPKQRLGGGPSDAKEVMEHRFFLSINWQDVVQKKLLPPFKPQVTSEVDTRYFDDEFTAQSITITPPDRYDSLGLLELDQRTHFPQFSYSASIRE
T1 sequence (P31749 whole entry): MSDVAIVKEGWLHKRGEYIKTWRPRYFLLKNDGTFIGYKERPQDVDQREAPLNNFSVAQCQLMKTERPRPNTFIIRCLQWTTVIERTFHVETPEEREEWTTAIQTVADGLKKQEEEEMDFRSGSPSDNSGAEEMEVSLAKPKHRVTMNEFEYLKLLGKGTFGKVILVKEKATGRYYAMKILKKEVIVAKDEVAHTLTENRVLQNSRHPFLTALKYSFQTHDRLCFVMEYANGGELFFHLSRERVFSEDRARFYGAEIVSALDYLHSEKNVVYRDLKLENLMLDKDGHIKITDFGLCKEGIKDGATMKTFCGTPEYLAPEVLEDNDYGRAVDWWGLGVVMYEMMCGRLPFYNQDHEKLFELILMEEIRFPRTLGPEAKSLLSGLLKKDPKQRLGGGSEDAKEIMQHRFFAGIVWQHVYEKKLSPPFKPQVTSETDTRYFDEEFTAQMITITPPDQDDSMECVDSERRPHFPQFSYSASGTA

| Compound | pIC50 (Full length Akt1) | pIC50 (Full length Akt2) | pIC50 (Full length Akt3) | pIC50 (Full length PKA) | pIC50 [1] |
| --- | --- | --- | --- | --- | --- |
| Cn1nccc1-c1ccc2c(c1)CN([C@H](CN)Cc1cccc(F)c1)C2=O [Example 1, 2-[(1S)-2-Amino-1-(3-fluorobenzyl)ethyl]-5-(1-methyl-1H-pyrazol-5-yl)isoindolin-1-one] | > 6.30 | > 6.30 | > 6.30 | 5.30 to 6.30 | > 6.30 |
| Cn1ncc(Cl)c1-c1ccc2c(c1)CN([C@H](CN)Cc1cccc(F)c1)C2=O [Example 2, 2-[(1S)-2-amino-1-(3-fluorobenzyl)ethyl]-5-(4-chloro-1-methyl-1H-pyrazol-5-yl)isoindolin-1-one] | > 6.30 | > 6.30 | > 6.30 | 5.30 to 6.30 | > 6.30 |
| Cc1cnn(C)c1-c1ccc2c(c1)CN([C@H](CN)Cc1cccc(F)c1)C2=O [Example 3, 2-[(1S)-2-amino-1-(3-fluorobenzyl)ethyl]-5-(4-methyl-1-methyl-1H-pyrazol-5-yl)isoindolin-1-one] | > 6.30 | > 6.30 | > 6.30 | 5.30 to 6.30 | > 6.30 |
| COCc1cnn(C)c1-c1ccc2c(c1)CN([C@H](CN)Cc1cccc(F)c1)C2=O [Example 4, 2-[(1S)-2-amino-1-(3-fluorobenzyl)ethyl]-5-(4-methoxymethyl-1-methyl-1H-pyrazol-5-yl)isoindolin-1-one] | > 6.30 | > 6.30 | > 6.30 | < 5.30 | > 6.30 |
| CCOCc1cnn(C)c1-c1ccc2c(c1)CN([C@H](CN)Cc1cccc(F)c1)C2=O [Example 5, 2-[(1S)-2-amino-1-(3-fluorobenzyl)ethyl]-5-(4-ethoxymethyl-1-methyl-1H-pyrazol-5-yl)isoindolin-1-one] | > 6.30 | > 6.30 | > 6.30 | < 5.30 | > 6.30 |
| CC(C)OCc1cnn(C)c1-c1ccc2c(c1)CN([C@H](CN)Cc1cccc(F)c1)C2=O [Example 6, 2-[(1S)-2-amino-1-(3-fluorobenzyl)ethyl]-5-[4-(2-propoxymethyl)-1-methyl-1H-pyrazol-5-yl]isoindolin-1-one] | > 6.30 | > 6.30 | > 6.30 | < 5.30 | > 6.30 |
| CCCOCc1cnn(C)c1-c1ccc2c(c1)CN([C@H](CN)Cc1cccc(F)c1)C2=O [Example 7, 2-[(1S)-2-amino-1-(3-fluorobenzyl)ethyl]-5-[4-(1-propoxymethyl)-1-methyl-1H-pyrazol-5-yl]isoindolin-1-one] | > 6.30 | > 6.30 | > 6.30 | < 5.30 | > 6.30 |
| Cn1ncc(COC2CCC2)c1-c1ccc2c(c1)CN([C@H](CN)Cc1cccc(F)c1)C2=O [Example 8, 2-[(1S)-2-amino-1-(3-fluorobenzyl)ethyl]-5-(4-cyclobutoxymethyl-1-methyl-1H-pyrazol-5-yl)isoindolin-1-one] | > 6.30 | > 6.30 | > 6.30 | 5.30 to 6.30 | > 6.30 |
| Cn1ncc(COCC2CC2)c1-c1ccc2c(c1)CN([C@H](CN)Cc1cccc(F)c1)C2=O [Example 9, 2-[(1S)-2-amino-1-(3-fluorobenzyl)ethyl]-5-(4-cyclopropylmethoxymethyl-1-methyl-1H-pyrazol-5-yl)isoindolin-1-one] | > 6.30 | > 6.30 | > 6.30 | < 5.30 | > 6.30 |
| CSCc1cnn(C)c1-c1ccc2c(c1)CN([C@H](CN)Cc1cccc(F)c1)C2=O [Example 10] | > 6.30 | 5.30 to 6.30 | 5.30 to 6.30 | < 5.30 | 5.30 to 6.30 |
| Cn1ncc(F)c1-c1ccc2c(c1)CN([C@H](CN)Cc1cccc(F)c1)C2=O [Example 11, 2-[(1S)-2-amino-1-(3-fluorobenzyl)ethyl]-5-(4-fluoro-1-methyl-1H-pyrazol-5-yl)isoindolin-1-one] | > 6.30 | > 6.30 | > 6.30 | 5.30 to 6.30 | > 6.30 |
| Cn1ncc(Br)c1-c1ccc2c(c1)CN([C@H](CN)Cc1cccc(F)c1)C2=O [Example 12, 2-[(1S)-2-amino-1-(3-fluorobenzyl)ethyl]-5-(4-bromo-1-methyl-1H-pyrazol-5-yl)isoindolin-1-one] | > 6.30 | > 6.30 | > 6.30 | 5.30 to 6.30 | > 6.30 |
| Cn1ncc(C#N)c1-c1ccc2c(c1)CN([C@H](CN)Cc1cccc(F)c1)C2=O [Example 13, 2-[(1S)-2-amino-1-(3-fluorobenzyl)ethyl]-5-(4-cyano-1-methyl-1H-pyrazol-5-yl)isoindolin-1-one] | > 6.30 | > 6.30 | > 6.30 | < 5.30 | > 6.30 |
| Cn1ncc(COC2CCC2)c1-c1ccc2c(c1)CN([C@H](CN)Cc1cc(F)cc(F)c1)C2=O [Example 47, 2-[(1S)-2-amino-1-(3,5-difluorobenzyl)ethyl]-5-[4-(cyclobutoxymethyl)-1-methyl-1H-pyrazol-5-yl]isoindolin-1-one] | > 6.30 | > 6.30 | > 6.30 | 5.30 to 6.30 | > 6.30 |

Second part, the molecule after the results:

| pIC50 (Full length Akt1) | pIC50 (Full length Akt2) | pIC50 (Full length Akt3) | pIC50 (Full length PKA) | pIC50 [1] | Compound |
| --- | --- | --- | --- | --- | --- |
| > 6.30 | > 6.30 | > 6.30 | 5.30 to 6.30 | > 6.30 | Cn1nccc1-c1ccc2c(c1)CN([C@H](CN)Cc1cc(F)cc(F)c1)C2=O [Example 40, 2-[(1S)-2-amino-1-(3,5-difluorobenzyl)ethyl]-5-(1-methyl-1H-pyrazol-5-yl)isoindolin-1-one] |
| > 6.30 | > 6.30 | > 6.30 | 5.30 to 6.30 | > 6.30 | Cn1ncc(Cl)c1-c1ccc2c(c1)CN([C@H](CN)Cc1cc(F)cc(F)c1)C2=O [Example 41, 2-[(1S)-2-amino-1-(3,5-difluorobenzyl)ethyl]-5-(4-chloro-1-methyl-1H-pyrazol-5-yl)isoindolin-1-one] |
| > 6.30 | > 6.30 | > 6.30 | 5.30 to 6.30 | > 6.30 | Cc1cnn(C)c1-c1ccc2c(c1)CN([C@H](CN)Cc1cc(F)cc(F)c1)C2=O [Example 42, 2-[(1S)-2-amino-1-(3,5-difluorobenzyl)ethyl]-5-(4-methyl-1-methyl-1H-pyrazol-5-yl)isoindolin-1-one] |
| > 6.30 | > 6.30 | > 6.30 | < 5.30 | > 6.30 | COCc1cnn(C)c1-c1ccc2c(c1)CN([C@H](CN)Cc1cc(F)cc(F)c1)C2=O [Example 43, 2-[(1S)-2-amino-1-(3,5-difluorobenzyl)ethyl]-5-(4-methoxymethyl-1-methyl-1H-pyrazol-5-yl)isoindolin-1-one] |
| > 6.30 | > 6.30 | > 6.30 | 5.30 to 6.30 | > 6.30 | CCOCc1cnn(C)c1-c1ccc2c(c1)CN([C@H](CN)Cc1cc(F)cc(F)c1)C2=O [Example 44, 2-[(1S)-2-amino-1-(3,5-difluorobenzyl)ethyl]-5-(4-ethoxymethyl-1-methyl-1H-pyrazol-5-yl)isoindolin-1-one] |
| > 6.30 | > 6.30 | > 6.30 | 5.30 to 6.30 | > 6.30 | CC(C)OCc1cnn(C)c1-c1ccc2c(c1)CN([C@H](CN)Cc1cc(F)cc(F)c1)C2=O [Example 45, 2-[(1S)-2-amino-1-(3,5-difluorobenzyl)ethyl]-5-[4-(2-propoxymethyl)-1-methyl-1H-pyrazol-5-yl]isoindolin-1-one] |
| > 6.30 | > 6.30 | > 6.30 | 5.30 to 6.30 | > 6.30 | CCCOCc1cnn(C)c1-c1ccc2c(c1)CN([C@H](CN)Cc1cc(F)cc(F)c1)C2=O [Example 46, 2-[(1S)-2-amino-1-(3,5-difluorobenzyl)ethyl]-5-[4-(1-propoxymethyl)-1-methyl-1H-pyrazol-5-]isoindolin-1-one] |
